Reference: patent US4777049A, “Constant release system with pulsed release” (priority 1987, dated 1988)
Converted amounts (≈) assume the structure as drawn. Where two headings read alike, the source gives them in different places. Values belong to the molecule of their own block, whether it stands above or below them.

How the values were obtained:
gonadotropin secretion = conditions: Drugs, Vol. 23, 207-226, 1982, cited from earlier work
[1] = cited from earlier work

Molecule: C[C@]12CC[C@@H]3c4ccc(O)cc4CC[C@H]3[C@@H]1CC[C@@H]2O [estradiol]
effect on gonadotropin secretion (gonadotropin secretion; high pulsed doses): stimulates the ovulating surge | effect on gonadotropin secretion (gonadotropin secretion; low pulsed dose): inhibits

solubility (physchem; distilled water, water): 275 mg/mL (≈ 1150 mM) | solubility (physchem; saturated sodium chloride solution): 16 mg/mL (≈ 66.9 mM)
Molecule: CC(C)(C)NCC(O)c1ccc(O)c(CO)c1 (centres unmarked) [salbutamol]

Molecule: C[C@H]1C[C@@H]2[C@H]([C@@H](O)C[C@@]3(C)[C@H]2CC[C@]3(O)C(=O)CO)[C@@]2(C)C=CC(=O)C=C12 [methylprednisolone]
medical effect of pulsed treatment ([1]; collagenic and progressing glomerulonephritis): beneficial medical effect

Molecule: insulin
medical effect of pulsed treatment ([1]; control of hyperglycemia): beneficial medical effect

Molecule: CO[C@H]1/C=C/O[C@@]2(C)Oc3c(C)c(O)c4c(O)c(c(/C=N/N5CCN(C)CC5)c(O)c4c3C2=O)NC(=O)/C(C)=C\C=C\[C@H](C)[C@H](O)[C@@H](C)[C@@H](O)[C@@H](C)[C@H](OC(C)=O)[C@@H]1C [rifampicin]
medical effect of pulsed treatment ([1]; leprosy): beneficial medical effect

Molecule: CC[C@H](C)[C@@H]1NC(=O)[C@H](Cc2ccc(O)cc2)NC(=O)[C@@H](N)CSSC[C@@H](C(=O)N2CCC[C@H]2C(=O)N[C@@H](CC(C)C)C(=O)NCC(N)=O)NC(=O)[C@H](CC(N)=O)NC(=O)[C@H](CCC(N)=O)NC1=O [oxytocin]
medical effect of pulsed treatment ([1]; induction of labor): beneficial medical effect
